The target in this test is Protein kinase C alpha type (Homo sapiens, UniProt P17252). The experiment in a line: Binding affinity (Ki) towards Protein kinase C.

By Ki is commonly meant the equilibrium dissociation constant of an inhibitor or competing ligand from its target. A high value points to a looser hold on the target.

In the case of `CCCCCCCCCCC[C@@H]1C(=O)O[C@]2(CO)COC(=O)[C@H]12`, the affinity, expressed as Ki, was 7.7 µM. That is a single-digit micromolar value. The result for `CCCCCCCCCCC[C@H]1C(=O)O[C@@]2(CO)COC(=O)[C@@H]12` reads 22 µM.

Turning to `CCCCCCCCCCCC[C@@H]1C(=O)O[C@]2(CO)CC(=O)O[C@H]12`, the Ki stood at 7.6 µM. Consider `CC(=O)O[C@@H]1CC(=O)O[C@H]1CO`, for which the Ki is greater than 1700 µM. As to `CCCCCCCCCCCCCCCCCCC(=O)O[C@@H]1CC(=O)O[C@H]1CO`, the Ki came to 8.7 µM. In the case of `CCCCCCCCCCC/C=C1/C(=O)O[C@@H](CO)[C@@]12CCC(=O)O2`, the affinity corresponds to a Ki of 13.6 µM. The result for `CO[C@@H](CC[C@H](C)[C@H]1O[C@@]23CC(OC(=O)C[C@H]([C@@H](C)O)OC(=O)C[C@](O)(O2)[C@H](C)CC3(C)C)[C@@H]1C)c1cccc(O)c1` reads 0.02 µM; that for `CCCCCCC(=O)O[C@@H]1CC(=O)O[C@H]1CO`, 187 µM; that for `CCCCCCCCCCCCCC(=O)O[C@H]1CC(=O)O[C@H]1CO`, 31 µM. The result for `CCCCCCCCCCC(=O)O[C@@H]1CC(=O)O[C@H]1CO` reads 4.1 µM; that for `CCCCCCCCCCCCCC(=O)C1CC(=O)O[C@H]1CO` (stereo partly specified), 2.5 µM; that for `CCCCCCCCCCCCCC(=O)OC[C@H](CO)OC(C)=O`, 1.3 µM. In turn, `CCCCCCCCCCCCC1C(=O)O[C@@H](CO)[C@@]12CCC(=O)O2` (stereo partly specified) had a Ki of 75.3 µM. As to `CCCCCCCCCCCCCC(=O)O[C@H]1CC(=O)O[C@@H]1CO`, the Ki was 5.3 µM. For the compound `CCCCCCCCCCCCCC(=O)O[C@@H]1CC(=O)O[C@@H]1CO`, the affinity corresponds to a Ki of 300 µM.

In turn, `CCCCCCCCCCC[C@@H]1C(=O)O[C@H]2[C@@H]1C(=O)O[C@@H]2CO` displayed a Ki of 27.8 µM.

(Values after ChEMBL document CHEMBL1127649, “Protein kinase C. Modeling of the binding site and prediction of binding constants” (J Med Chem, 1994).)
